Read-outs that look alike come from different tables or passages of the source. Some results are limits rather than exact numbers.

In one series the target is T1, Abcc4 (Mus musculus, UniProt E9Q236).
T1 sequence (E9Q236 1-1325): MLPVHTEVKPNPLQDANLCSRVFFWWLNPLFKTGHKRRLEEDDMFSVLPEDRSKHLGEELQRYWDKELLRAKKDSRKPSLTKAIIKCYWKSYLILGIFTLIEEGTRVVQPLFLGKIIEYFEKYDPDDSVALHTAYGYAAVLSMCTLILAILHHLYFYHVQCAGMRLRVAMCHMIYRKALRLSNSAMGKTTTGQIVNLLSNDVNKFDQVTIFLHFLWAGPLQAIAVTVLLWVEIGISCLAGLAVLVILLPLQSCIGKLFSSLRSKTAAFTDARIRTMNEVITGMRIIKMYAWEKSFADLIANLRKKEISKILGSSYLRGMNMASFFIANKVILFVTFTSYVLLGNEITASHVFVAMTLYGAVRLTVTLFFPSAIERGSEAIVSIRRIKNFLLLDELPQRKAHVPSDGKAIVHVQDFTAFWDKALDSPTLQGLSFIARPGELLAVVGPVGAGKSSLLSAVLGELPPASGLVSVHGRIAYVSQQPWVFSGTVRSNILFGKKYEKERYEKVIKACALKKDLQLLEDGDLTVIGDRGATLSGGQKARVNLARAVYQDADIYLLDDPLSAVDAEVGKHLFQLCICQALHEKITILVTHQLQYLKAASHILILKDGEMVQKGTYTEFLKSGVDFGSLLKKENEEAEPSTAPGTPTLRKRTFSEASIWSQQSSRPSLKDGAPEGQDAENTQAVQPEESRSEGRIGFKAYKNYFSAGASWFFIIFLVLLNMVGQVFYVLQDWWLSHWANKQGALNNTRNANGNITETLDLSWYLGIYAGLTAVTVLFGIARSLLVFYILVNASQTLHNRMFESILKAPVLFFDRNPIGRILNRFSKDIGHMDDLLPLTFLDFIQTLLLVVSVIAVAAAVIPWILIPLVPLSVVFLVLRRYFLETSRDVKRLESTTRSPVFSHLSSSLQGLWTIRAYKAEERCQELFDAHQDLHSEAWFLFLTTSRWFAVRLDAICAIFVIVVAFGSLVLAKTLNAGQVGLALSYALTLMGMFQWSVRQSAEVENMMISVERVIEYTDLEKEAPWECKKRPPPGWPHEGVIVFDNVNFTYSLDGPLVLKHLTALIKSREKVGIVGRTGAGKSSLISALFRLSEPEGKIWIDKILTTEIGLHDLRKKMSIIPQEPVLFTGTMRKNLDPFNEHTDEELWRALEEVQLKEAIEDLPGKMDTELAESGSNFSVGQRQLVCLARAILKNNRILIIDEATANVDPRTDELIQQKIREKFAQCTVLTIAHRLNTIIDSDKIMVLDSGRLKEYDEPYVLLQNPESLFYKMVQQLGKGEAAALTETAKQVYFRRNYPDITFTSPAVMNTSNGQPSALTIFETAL
The series is described as follows: Ex vivo mucosal-to-serosal transport in isolated stomach sacs. It counts as in vitro ADME. The following applies: Abcc4(−/−) vs wildtype mice.

For series [1] the following is noted: human, oral administration; cited from earlier work.
For series [2] the following is noted: cited from earlier work.
For another series, the target named is T2, human ABCC4 (Homo sapiens, UniProt O15439).
T2 sequence (O15439 1-1325): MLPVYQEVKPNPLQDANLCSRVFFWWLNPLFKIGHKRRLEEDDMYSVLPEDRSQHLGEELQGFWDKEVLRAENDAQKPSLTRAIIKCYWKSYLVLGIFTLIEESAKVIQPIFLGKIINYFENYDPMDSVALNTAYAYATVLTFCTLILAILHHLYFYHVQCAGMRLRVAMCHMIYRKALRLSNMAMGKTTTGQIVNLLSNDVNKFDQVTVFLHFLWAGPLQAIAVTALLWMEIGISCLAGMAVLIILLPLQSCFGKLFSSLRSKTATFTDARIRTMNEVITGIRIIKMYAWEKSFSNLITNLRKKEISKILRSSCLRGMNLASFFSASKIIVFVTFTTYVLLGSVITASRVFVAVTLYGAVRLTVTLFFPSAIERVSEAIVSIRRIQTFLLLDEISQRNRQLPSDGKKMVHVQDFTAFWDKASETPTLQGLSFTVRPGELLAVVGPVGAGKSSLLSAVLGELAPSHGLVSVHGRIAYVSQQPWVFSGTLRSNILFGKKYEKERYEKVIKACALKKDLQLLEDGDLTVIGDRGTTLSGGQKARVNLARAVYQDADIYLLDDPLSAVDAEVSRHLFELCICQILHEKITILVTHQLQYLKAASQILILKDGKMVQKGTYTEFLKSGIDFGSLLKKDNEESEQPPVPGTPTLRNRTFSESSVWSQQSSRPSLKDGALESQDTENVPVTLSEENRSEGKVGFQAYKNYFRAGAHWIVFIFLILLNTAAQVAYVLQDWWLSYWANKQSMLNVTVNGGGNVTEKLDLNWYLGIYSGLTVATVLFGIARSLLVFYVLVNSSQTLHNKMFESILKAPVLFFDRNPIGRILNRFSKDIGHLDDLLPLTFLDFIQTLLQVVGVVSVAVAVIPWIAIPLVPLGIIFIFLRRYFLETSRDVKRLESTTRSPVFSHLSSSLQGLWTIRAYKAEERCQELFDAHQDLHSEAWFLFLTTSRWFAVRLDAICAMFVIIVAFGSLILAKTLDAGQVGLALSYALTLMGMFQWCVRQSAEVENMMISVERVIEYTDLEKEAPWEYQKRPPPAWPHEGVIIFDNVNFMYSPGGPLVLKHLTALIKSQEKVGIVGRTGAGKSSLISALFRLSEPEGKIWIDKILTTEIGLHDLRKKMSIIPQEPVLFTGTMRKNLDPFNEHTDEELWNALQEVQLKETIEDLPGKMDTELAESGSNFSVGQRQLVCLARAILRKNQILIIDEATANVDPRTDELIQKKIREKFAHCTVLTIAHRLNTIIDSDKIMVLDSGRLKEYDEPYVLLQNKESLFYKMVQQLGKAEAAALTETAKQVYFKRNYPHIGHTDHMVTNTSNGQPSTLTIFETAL
The following applies: 5 min, 1 μM.

`Cc1nc(Nc2ncc(C(=O)Nc3c(C)cccc3Cl)s2)cc(N2CCN(CCO)CC2)n1` [dasatinib, Dasatinib]: the “reduction of drug transport to the serosal side with Abcc4-deficiency” value on Abcc4 is reported as “up to 3.9 fold”. Moreover, the “unchanged drug as share of the dose recovered in feces” value in series [1] is reported as 19%. Moreover, the “unchanged drug as share of the dose recovered in urine” value in series [1] is “less than 1%”. Moreover, the “coefficient of variation in AUC” value in series [2] (adult patients) was more than 50%; in series [2] (pediatric patient population) it was not above 46%. The “accumulation in ABCC4-overexpressing vesicles compared to control vesicles” value on human ABCC4 was determined as 3.0 fold.

The record behind these values is article PMC3752901 (Clinical cancer research : an official journal of the …, 2013).
